In patent US7888357B2, “Anti-inflammatory and protein kinase inhibitor compositions and related methods for downregulation of detrimental cellular responses and inhibition of cell death” (Northwestern University, priority 2001, dated 2011):

How the values were obtained:
protein kinase C (PKC) = assay: Reconstituted enzyme assay, PKC; assay type: biochemical, rat; conditions: γ-[32P]-ATP, synthetic peptide substrate; read-out: IC50 PKC
Experimental: (§1) [table] […] The rationale for using BV-2 cells in high throughput screening was the paucity of well-characterized human microglial cell lines, and the relevant activation responses and signaling pathways reflect those seen in human and rodent primary microglial cultures. Compounds were tested for their effects on NO accumulation in conditioned media of LPS-stimulated BV-2 cells by measurement of nitrite production by the Griess assay as a read-out for iNOS activity, as described previously. Stock solutions of compounds were prepared in dimethylsulfoxide (DMSO) or in water. When stock solutions were prepared in DMSO, control wells contained the same final concentration of DMSO as the compound-containing wells. […] Solutions of compounds for cell treatments were diluted to a 10× final concentration by dilution of stock solutions in αMEM media. […] Reconstituted enzyme assays were done as described s. The sources of protein kinases were: bovine heart PKA from Promega, rat brain PKC from Calbiochem, rat CaMKII from New England Biolabs, chicken gizzard MLCK prepared as described, and a p38 MAP kinase kit containing recombinant Xenopus p38-MAPK and its human substrate from Upstate Biotechnology. The catalytic domains of these protein kinases retain a high level of amino acid sequence identity across mammalian species, consistent with the lack of documented major differences across species for the in vitro catalytic activity of a given kinase.

p38 MAPK = target: T1, p38 MAPK (Xenopus laevis, UniProt P47812); assay: Reconstituted enzyme assay, p38 MAPK; assay type: biochemical; conditions: γ-[32P]-ATP, synthetic peptide substrate
T1 construct: purchased Upstate Biotechnology
Experimental: as §1, with “The catalytic domains of these protein kinases retain a high level of amino acid sequence identity across mammalian species, consistent with the lack of documented major differences across species for the in vitro catalytic activity of a given kinase.” left out

cell culture = assay: Cytotoxicity in cell culture; assay type: cell-based; conditions: over the entire dose range of inhibitor
Text: The inhibition of iNOS and IL-1β production by MW01-070C, however, is not limited to LPS stimulation. […] The rationale for examination of Aβ stimulation is its involvement as an initiating event in models of AD initiation and progression. The stimulation by Aβ is seen (FIG. 6) with preparations of the Aβ peptide (see Experimental Procedures) that are known to have neurotoxic activity [Hu, J., Akama, K. T., Krafft, G. A., Chromy, B. A., and Van Eldik, L. J. (1998) Brain Res. 785, 195-206; Lambert, M. P. Barlow, A. K., Chromy, B. A., Edwards, C., Freed, R., Liosatos, M., Morgan, T. E., Rozovsky, I., Trommer, B., Viola, K. L., Wals, P., Zhang, C., Finch, C. E., Kraffk, G. A., and Klein, W. L. (1998) Proc. Natl. Acad. Sci. USA 95, 6448-6453]. The rationale for examination of S100 stimulation is its presence as an astrocyte protein that can function as an autocrine and paracrine cytokine, and its increased production in AD and other neuroinflammatory related disorders [Griffin, W. S. T., Stanley, L. C., Ling, C., White, L., MacLeod, V., Perrot, L. J., White, C. L., III, and Araoz, C. (1989) Proc. Natl. Acad. Sci. USA 86, 7611-7615; Hu, J., Castets, F., Guevara, J. L., and Van Eldik, L. J. (1996) J. Biol. Chem. 271, 2543-2547; Donato, R. (1999) Biochim. Biophys. Acta 1450, 191-231; Van Eldik, L. J., and Griffin, W. S. T. (1994) Biochim. Biophys. Acta 1223, 398-403]. […]

T1 sequence (P47812 whole entry): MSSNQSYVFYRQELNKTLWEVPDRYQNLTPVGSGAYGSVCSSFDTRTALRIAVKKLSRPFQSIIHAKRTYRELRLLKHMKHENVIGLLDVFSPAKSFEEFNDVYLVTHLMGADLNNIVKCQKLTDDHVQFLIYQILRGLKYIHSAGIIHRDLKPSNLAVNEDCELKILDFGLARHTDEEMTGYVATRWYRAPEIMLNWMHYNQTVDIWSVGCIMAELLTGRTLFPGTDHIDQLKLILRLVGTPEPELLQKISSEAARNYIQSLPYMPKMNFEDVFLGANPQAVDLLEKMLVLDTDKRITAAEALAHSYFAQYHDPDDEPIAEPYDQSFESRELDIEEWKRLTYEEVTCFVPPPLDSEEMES

IC50 (protein kinase C (PKC)): > 100 µM
IC50 (p38 MAPK): > 100 µM
Structure (SMILES): N=c1cc2c(nn1CCCCCCCCCCC(=O)N1CCN(c3ncccn3)CC1)-c1ccccc1CC2 [MW01-070C]
cytotoxicity in cell culture (cell culture): no evidence of cytotoxicity
